Reference: the supplement of paper PMC10331698
± gives the standard deviation of the averaged measurements.

Columns and labels:
Experiment in all cases: LOEC (log10 uM (lowest observed effect concentration))
[1] = compound: CCNS(=O)(=O)C(F)(F)C(F)(F)C(F)(F)C(F)(F)C(F)(F)C(F)(F)C(F)(F)C(F)(F)F [N-Ethylperfluorooctanesulfonamide]
Method: (§1)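 BioMAP Diversity Plus panel in human primary cell co-cultures, 4 concentrations in duplicate blinded samples. Responses are log10 fold change versus DMSO control, processed with tcpl v2.1.0. A hit is called when responses at any concentration exceed the cutoff (the larger of 3*bmad or log10(1.2)); the lowest observed effect concentration (modl_ga, log10 uM) is reported for hits.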

[2] = compound: NS(=O)(=O)C(F)(F)C(F)(F)C(F)(F)C(F)(F)C(F)(F)C(F)(F)C(F)(F)C(F)(F)F [Perfluorooctanesulfonamide]
Method: as §1

[3] = compound: O=C(O)C(F)(F)C(F)(F)C(F)(F)C(F)(F)C(F)(F)C(F)(F)C(F)(F)C(F)(F)C(F)(F)C(F)(F)F [Perfluoroundecanoic acid]
Method: as §1

[4] = compound: O=C(O)C(F)(F)C(F)(F)C(F)(F)C(F)(F)C(F)(F)C(F)(F)C(F)(F)C(F)(F)F [Perfluorononanoic acid]
Method: as §1

[5] = compound: O=C(O)C(F)(F)OC(F)(F)C(F)(F)OC(F)(F)C(F)(F)OC(F)(F)C(F)(F)C(F)(F)C(F)(F)F [Perfluoro-3,6,9-trioxatridecanoic acid]
Method: as §1

[6] = compound: OCC(F)(F)OC(F)(F)C(F)(F)OC(F)(F)C(F)(F)OC(F)(F)CO [1H,1H,11H,11H-Perfluorotetraethylene glycol]
Method: as §1

[7] = compound: O=C(O)C=C(C(F)(F)F)C(F)(F)F [3,3-Bis(trifluoromethyl)-2-propenoic acid]
Method: as §1

BF4T IL1a down
LOEC (log10 uM) [1]: 1.78
LOEC (log10 uM) [2]: 1.78
LOEC (log10 uM) [3]: 0.845
LOEC (log10 uM) [4]: 1.78
LOEC (log10 uM) [5]: 1.3

BE3C uPAR down
LOEC (log10 uM) [1]: 1.3
LOEC (log10 uM) [2]: 1.78
LOEC (log10 uM) [3]: 0.845
LOEC (log10 uM) [4]: 1.78
LOEC (log10 uM) [5]: 0.845

BE3C MMP9 down
LOEC (log10 uM) [1]: 0.845
LOEC (log10 uM) [2]: 0.845
LOEC (log10 uM) [3]: -0.199 ± 0.71
LOEC (log10 uM) [4]: 1.78
LOEC (log10 uM) [5]: 0.845

BF4T Keratin818 down
LOEC (log10 uM) [1]: 1.54 ± 0.34
LOEC (log10 uM) [2]: 1.54 ± 0.34
LOEC (log10 uM) [3]: 0.845
LOEC (log10 uM) [4]: 1.78
LOEC (log10 uM) [5]: 1.3

MyoF IL8 down
LOEC (log10 uM) [1]: 1.78
LOEC (log10 uM) [2]: 1.78
LOEC (log10 uM) [3]: 0.845
LOEC (log10 uM) [5]: 1.78

MyoF TIMP1 down
LOEC (log10 uM) [1]: 1.3
LOEC (log10 uM) [2]: 1.78
LOEC (log10 uM) [3]: 0.573 ± 0.39
LOEC (log10 uM) [5]: 1.3

hDFCGF IP10 down
LOEC (log10 uM) [1]: 0.845
LOEC (log10 uM) [2]: 0.573 ± 0.39
LOEC (log10 uM) [3]: 0.301
LOEC (log10 uM) [4]: 1.78
LOEC (log10 uM) [5]: 0.845
LOEC (log10 uM) [6]: 1.3

IMphg SRB down
LOEC (log10 uM) [2]: 1.78
LOEC (log10 uM) [5]: 1.78

3C Thrombomodulin up
LOEC (log10 uM) [2]: 1.3

BT xTNFa down
LOEC (log10 uM) [2]: 1.54 ± 0.34
LOEC (log10 uM) [7]: 1.54 ± 0.34
LOEC (log10 uM) [6]: 1.78

BF4T MMP9 down
LOEC (log10 uM) [1]: 1.54 ± 0.34
LOEC (log10 uM) [2]: 1.3
LOEC (log10 uM) [3]: 0.845
LOEC (log10 uM) [4]: 1.78
LOEC (log10 uM) [5]: 1.07 ± 0.32

3C Eselectin down
LOEC (log10 uM) [2]: 1.78
LOEC (log10 uM) [5]: 1.78
LOEC (log10 uM) [7]: 1.3

4H SRB down
LOEC (log10 uM) [1]: 1.78
LOEC (log10 uM) [2]: 1.3
LOEC (log10 uM) [4]: 1.78
LOEC (log10 uM) [5]: 1.78

BE3C PAI1 down
LOEC (log10 uM) [1]: 0.845
LOEC (log10 uM) [2]: 0.845
LOEC (log10 uM) [3]: -0.199 ± 0.71
LOEC (log10 uM) [4]: 1.54 ± 0.34
LOEC (log10 uM) [5]: 0.573 ± 0.39

CASM3C SRB down
LOEC (log10 uM) [2]: 1.78
LOEC (log10 uM) [5]: 1.78

BE3C Keratin818 down
LOEC (log10 uM) [1]: 0.845
LOEC (log10 uM) [2]: 1.78
LOEC (log10 uM) [3]: 0.845
LOEC (log10 uM) [4]: 1.78
LOEC (log10 uM) [5]: 0.845

LPS SRB down
LOEC (log10 uM) [1]: 1.78
LOEC (log10 uM) [2]: 1.78
LOEC (log10 uM) [4]: 1.78
LOEC (log10 uM) [5]: 1.78

4H VEGFRII down
LOEC (log10 uM) [1]: 1.78

BF4T MCP1 down
LOEC (log10 uM) [1]: 1.3
LOEC (log10 uM) [2]: 1.78
LOEC (log10 uM) [3]: 0.845
LOEC (log10 uM) [4]: 1.3
LOEC (log10 uM) [5]: 1.07 ± 0.32
LOEC (log10 uM) [6]: 1.3

LPS MCP1 down
LOEC (log10 uM) [1]: 1.78
LOEC (log10 uM) [2]: 1.78
LOEC (log10 uM) [4]: 1.78
LOEC (log10 uM) [5]: 1.54 ± 0.34

MyoF CollagenI down
LOEC (log10 uM) [1]: 1.78
LOEC (log10 uM) [2]: 1.3
LOEC (log10 uM) [3]: 0.301
LOEC (log10 uM) [4]: 1.54 ± 0.34
LOEC (log10 uM) [5]: 0.845

3C MIG down
LOEC (log10 uM) [2]: 1.78
LOEC (log10 uM) [5]: 1.78

LPS CD40 down
LOEC (log10 uM) [1]: 1.78
LOEC (log10 uM) [2]: 1.78
LOEC (log10 uM) [4]: 1.78
LOEC (log10 uM) [5]: 1.78
LOEC (log10 uM) [7]: 1.78

3C Proliferation down
LOEC (log10 uM) [1]: 1.78
LOEC (log10 uM) [2]: 1.3
LOEC (log10 uM) [3]: 0.845
LOEC (log10 uM) [4]: 1.78
LOEC (log10 uM) [5]: 1.3
LOEC (log10 uM) [6]: 1.54 ± 0.34

BF4T IL8 down
LOEC (log10 uM) [2]: 1.78
LOEC (log10 uM) [4]: 1.78

BE3C IL1a down
LOEC (log10 uM) [1]: 1.78
LOEC (log10 uM) [2]: 1.78
LOEC (log10 uM) [3]: 0.845
LOEC (log10 uM) [4]: 1.78
LOEC (log10 uM) [5]: 0.845

hDFCGF TIMP1 down
LOEC (log10 uM) [1]: 1.78
LOEC (log10 uM) [3]: 0.845
LOEC (log10 uM) [5]: 1.07 ± 0.32

hDFCGF ITAC down
LOEC (log10 uM) [1]: 0.845
LOEC (log10 uM) [2]: 0.845
LOEC (log10 uM) [3]: 0.845
LOEC (log10 uM) [4]: 1.78
LOEC (log10 uM) [5]: 0.845
LOEC (log10 uM) [6]: 1.3

BF4T PAI1 down
LOEC (log10 uM) [2]: 1.78
LOEC (log10 uM) [3]: 0.845
LOEC (log10 uM) [4]: 1.78
LOEC (log10 uM) [5]: 1.3

BF4T VCAM1 down
LOEC (log10 uM) [1]: 0.845
LOEC (log10 uM) [2]: 1.3
LOEC (log10 uM) [3]: 0.845
LOEC (log10 uM) [4]: 1.07 ± 0.32
LOEC (log10 uM) [5]: 0.845

KF3CT uPA down
LOEC (log10 uM) [1]: 1.78
LOEC (log10 uM) [2]: 1.3
LOEC (log10 uM) [3]: 0.845
LOEC (log10 uM) [5]: 1.3

hDFCGF MCSF down
LOEC (log10 uM) [1]: 1.3
LOEC (log10 uM) [2]: 1.3
LOEC (log10 uM) [3]: 0.845
LOEC (log10 uM) [5]: 0.845
LOEC (log10 uM) [6]: 1.54 ± 0.34

KF3CT IP10 down
LOEC (log10 uM) [1]: 1.54 ± 0.34
LOEC (log10 uM) [2]: 1.3
LOEC (log10 uM) [3]: 0.845
LOEC (log10 uM) [4]: 1.78
LOEC (log10 uM) [5]: 0.845

4H MCP1 down
LOEC (log10 uM) [1]: 1.78
LOEC (log10 uM) [2]: 1.78
LOEC (log10 uM) [5]: 1.78
LOEC (log10 uM) [6]: 1.78

SAg Proliferation down
LOEC (log10 uM) [1]: 1.78
LOEC (log10 uM) [2]: 1.78
LOEC (log10 uM) [4]: 1.78
LOEC (log10 uM) [5]: 1.78
LOEC (log10 uM) [7]: 1.78

hDFCGF MMP1 up
LOEC (log10 uM) [6]: 1.54 ± 0.34

MyoF bFGF down
LOEC (log10 uM) [1]: 1.78
LOEC (log10 uM) [2]: 1.78
LOEC (log10 uM) [3]: 0.845
LOEC (log10 uM) [5]: 1.07 ± 0.32

MyoF CollagenIV up
LOEC (log10 uM) [4]: 1.3

SAg PBMCCytotoxicity down
LOEC (log10 uM) [2]: 1.78
LOEC (log10 uM) [5]: 1.78

MyoF CollagenIII down
LOEC (log10 uM) [1]: 1.78
LOEC (log10 uM) [2]: 1.3
LOEC (log10 uM) [3]: 0.301
LOEC (log10 uM) [4]: 1.78
LOEC (log10 uM) [5]: 0.845

IMphg SRB.Mphg down
LOEC (log10 uM) [2]: 1.78
LOEC (log10 uM) [5]: 1.78

BF4T MMP1 down
LOEC (log10 uM) [1]: 1.78
LOEC (log10 uM) [3]: 0.845
LOEC (log10 uM) [4]: 1.78
LOEC (log10 uM) [5]: 1.3

BE3C uPA down
LOEC (log10 uM) [2]: 1.78
LOEC (log10 uM) [3]: 0.845
LOEC (log10 uM) [4]: 1.31 ± 0.66
LOEC (log10 uM) [5]: 0.845

hDFCGF MIG down
LOEC (log10 uM) [1]: 1.3
LOEC (log10 uM) [2]: 0.573 ± 0.39
LOEC (log10 uM) [3]: 0.845
LOEC (log10 uM) [4]: 1.54 ± 0.34
LOEC (log10 uM) [5]: 0.845
LOEC (log10 uM) [6]: 0.845

MyoF SRB down
LOEC (log10 uM) [1]: 1.78
LOEC (log10 uM) [2]: 1.3
LOEC (log10 uM) [3]: 0.845
LOEC (log10 uM) [5]: 1.07 ± 0.32

BT sIgG down
LOEC (log10 uM) [1]: 1.54 ± 0.34
LOEC (log10 uM) [2]: 1.54 ± 0.34
LOEC (log10 uM) [5]: 1.78
LOEC (log10 uM) [7]: 1.78
LOEC (log10 uM) [6]: 1.78

LPS TissueFactor up
LOEC (log10 uM) [1]: 1.78

CASM3C HLADR down
LOEC (log10 uM) [7]: 0.573 ± 0.39

BE3C EGFR down
LOEC (log10 uM) [1]: 1.54 ± 0.34
LOEC (log10 uM) [2]: 1.78
LOEC (log10 uM) [3]: 0.845

3C ICAM1 down
LOEC (log10 uM) [2]: 1.78
LOEC (log10 uM) [5]: 1.78

hDFCGF TIMP2 down
LOEC (log10 uM) [1]: 1.54 ± 0.34
LOEC (log10 uM) [3]: 0.845
LOEC (log10 uM) [5]: 0.845

hDFCGF CollagenI down
LOEC (log10 uM) [1]: 1.78
LOEC (log10 uM) [3]: 0.845
LOEC (log10 uM) [5]: 1.54 ± 0.34

hDFCGF EGFR down
LOEC (log10 uM) [3]: 0.301

BF4T uPA down
LOEC (log10 uM) [2]: 1.78
LOEC (log10 uM) [3]: 0.845
LOEC (log10 uM) [4]: 1.78
LOEC (log10 uM) [5]: 1.3
